Holding throughout (assay type): functional
One test has as its system Escherichia coli. Kind of test: Antibacterial activity against multidrug-resistant Escherichia coli MTCC 1667 by broth dilution method. (Broth dilution looks for growth in wells or tubes with falling amounts of substance.)
For the next test, the system named is Staphylococcus aureus. The test can be described thus: Antibacterial activity against multidrug-resistant Staphylococcus aureus MTCC 737 by broth dilution method.
For test [1], the system named is Staphylococcus epidermidis. Kind of test: Antibacterial activity against multidrug-resistant Staphylococcus epidermidis MTCC 435 by broth dilution method.
The subject of the next test is Klebsiella pneumoniae. The test can be described thus: Antibacterial activity against multidrug-resistant Klebsiella pneumoniae MTCC 2405 by broth dilution method.
A further test concerns Proteus vulgaris. Kind of test: Antibacterial activity against multidrug-resistant Proteus vulgaris MTCC 1771 by broth dilution method.
In the next test the test system is Pseudomonas aeruginosa. Kind of test: Antibacterial activity against multidrug-resistant Pseudomonas aeruginosa by broth dilution method.
The next test deals with Salmonella typhi. The test can be described thus: Antibacterial activity against multidrug-resistant Salmonella enterica subsp. enterica serovar Typhi MTCC 734 by broth dilution method.

Each structure is given as a SMILES string. Values after ≈ are worked out from the molar mass of the structure shown.

The MIC is the smallest concentration in the dilution series that meets the test's criterion for growth inhibition. Read a high MIC as a need for much substance.

On to `CN(C)[C@@H]1C(O)=C(C(N)=O)C(=O)[C@@]2(O)C(O)=C3C(=O)c4c(O)cccc4[C@@](C)(O)[C@H]3[C@H](O)[C@@H]12` [OXYTETRACYCLINE], for which the minimum inhibitory concentration (MIC) against Escherichia coli was 6.25 µg/mL (≈ 13.6 µM); in the test on Staphylococcus aureus it was 3 µg/mL (≈ 6.52 µM); in test [1] it was 3 µg/mL (≈ 6.52 µM); in the test with Klebsiella pneumoniae, 12.5 µg/mL (≈ 27.1 µM); against Proteus vulgaris it was 12.5 µg/mL (≈ 27.1 µM); with Pseudomonas aeruginosa, 12.5 µg/mL (≈ 27.1 µM). In the test on Salmonella typhi, this compound yielded a minimum inhibitory concentration (MIC) of 3 µg/mL (≈ 6.52 µM).

(Values after ChEMBL document CHEMBL3044981, “Production and optimization of oxytetracycline by a new isolate Streptomyces rimosus using response surface methodology” (2012).)
